Reference: patent publication US7166440B2, “2,4,5-trichlorophenoxyalkyl carboxylic acid and a method for determining dioxins using the same” (priority 2003, dated 2007)
Read-outs that look alike come from different tables or passages of the source.

Tests used:
[1] = system: anti-dioxin antibody (monoclonal antibody) to 1,2,3,7,8-PeCDF; format: binding, mouse
Procedure: (§1) First, the immune antigen or the compound (IIa) conjugated with BSA that was produced in Example 2 was diluted with PBS to 1 μg/ml, and divided into each well of a 96-well assay plate (manufactured by Costar, Cat. No. 3590) in an amount of 50 μl. Then, the plate was sealed and allowed to stand at room temperature for one hour. Then, each well was washed with PBS containing 0.005% of Tween 20 three times. Next, 300 μl of Block Ace (manufactured by Snow Brand Milk Products Co., Ltd.) diluted with distilled water to a concentration of 25% was supplied to each well, and the plate was sealed and allowed to stand at 37° C. for two hours. Each well was washed with PBS containing 0.005% of Tween 20 three times. Then, a 25 μl of the dioxin compound solution of a final concentration of 5×10^−7 M was added to each well. The dioxin compound solution was prepared by diluting the dioxin with a dilution solvent comprising 20% DMSO and 0.01% of Triton X100. As controls, a dilution solvent in an amount of 25 μl was added to each well. Immediately after the addition of the dioxin compound solution or the dilution solvent, 25 μl of an antibody solution diluted with PBS containing 1 mg/ml of BSA was added to each well. The assay plate was stand at room temperature for one hour with slightly shaking.
(§2) After washing with PBS containing 0.005% of Tween 20 three times, 50 μl of the diluted HRP-labeled goat anti-mouse IgG (H+L) antibody (produced by affinity purification) was added to each well. The diluted HRP-labeled antibody was prepared by diluting the purchased HRP-labeled antibody to 2000 times as much with 10% Block Ace. The plate was allowed to stand at room temperature for one hour, followed by washing with PBS containing 0.005% of Tween 20 three times. Then, 50 μl of a HRP substrate, TMB (manufactured by KPL Co., Ltd.), was added to each well and allowed to stand at room temperature for 5 to 10 min. Then, 5 μl of a 1 M phosphate solution was added to each well, and the absorbance at a wavelength of 455 nm (655 nm for the reference) was measured with a spectrophotometer for a microtiter. The reactivity was evaluated by obtaining the absorbance (B0) at the time when the dioxin compound is not added, which is a control (diluent) and the absorbance (B) at the time when the dioxin compound is added. The inhibition rate was measured based on the following equation. Inhibition rate={(B0−B)/B0}×100 (%)
An anti-dioxin antibody (monoclonal antibody) to 1,2,3,7,8-PeCDF is used as an antibody. A haptenized product of a solid-phase antigen 6-(2,4,5-trichlorophenoxy) hexanoic acid amide derivative (IIa) and the chlorine-containing organic compounds in Tables 2 and 3 were allowed to compete with each other to this anti-dioxin antibody so that a competitive reaction was effected in the same manner as in Example 3. Then, the cross-reactivity was examined.

[2] = system: monoclonal antibody of clone C-1 (anti-dioxin antibody); test: Competitive EIA: inhibition of binding of clone C-1 monoclonal antibody to solid-phase antigen by free dioxin; parameters: species or system mouse
Procedure: (§3) Using various monoclonal antibodies, the specificity of the monoclonal antibodies to dioxin isomers was examined. The monoclonal antibodies were prepared in the following manner. An antibody-producing cell was injected into the abdominal cavity of a pristane-pretreated mouse. Th ascites fluid in the abdominal cavity caused by the growth of the cells was collected, and then a monoclonal antibody was purified by affinity chromatography using a protein G-Sepharose (manufactured by BIO-RAD Co.) as a carrier. Using three antibody-producing clones C-1, C-2 and C-3, respective monoclonal antibodies were prepared. The clones C-1, C-2 and C-3 produce monoclonal antibodies with respect to dibenzodioxin having chlorine atom at the 2-, 3-, 7-, and 8-positions.
(§4) To evaluate the specificity of the monoclonal antibody was performed according to the following principles. A solid-phase antigen (competitor) and a free dioxin (ligand) are allowed to compete with each other with respect to a free monoclonal antibody (anti-dioxin antibody). If the reactivity of the monoclonal antibody and the dioxin is higher than that of the monoclonal antibody and the solid-phase antigen, the binding of the monoclonal antibody to the solid-phase antigen is reduced. This reduction of the binding of the monoclonal antibody to the solid-phase antigen can be measured by color development method. This phenomenon can be applied to evaluate the specificity.
as §1, §2
(§5) Evaluation was such that the larger this inhibition rate is, the higher the specificity of the anti-dioxin antibody to the dioxin compound.

[3] = system: monoclonal antibody of clone C-2 (anti-dioxin antibody); test: Competitive EIA: inhibition of binding of clone C-2 monoclonal antibody to solid-phase antigen by free dioxin; parameters: species or system mouse
Procedure: as §3, §4, §1, §2, §5

[4] = system: monoclonal antibody of clone C-3 (anti-dioxin antibody); test: Competitive EIA: inhibition of binding of clone C-3 monoclonal antibody to solid-phase antigen by free dioxin; parameters: species or system mouse
Procedure: as §3, §4, §1, §2, §5

[5] = toxicity equivalent factor of the dioxins used; cited from earlier work
[6] = Table 3, other chlorine-containing organic compounds and polycyclic aromatic hydrocarbons, solid-phase antigen (IIa), antibody to 1,2,3,7,8-PeCDF
[7] = solid-phase antigen * (haptenized product of 6-(2,4,5-trichlorophenoxy) hexanoic acid amide derivative IIa), dioxin compound 5×10^−7 M
[8] = solid-phase antigen immunogen 1, dioxin compound final concentration 5×10^−7 M
[9] = solid-phase antigen immunogen 2, dioxin compound final concentration 5×10^−7 M
[10] = solid-phase antigen immunogen 3, dioxin compound final concentration 5×10^−7 M
[11] = Table 2, dioxins having TEF, solid-phase antigen (IIa), antibody to 1,2,3,7,8-PeCDF

| SMILES | cross reaction [1, 6] [%] | Inhibition rate [2, 7] [%] | Inhibition rate [2, 8] [%] | Inhibition rate [3, 7] [%] | Inhibition rate [3, 9] [%] | Inhibition rate [4, 7] [%] | Inhibition rate [4, 10] [%] | cross reaction [1, 11] [%] | TEF value [5] | cross reaction [1] [%] |
| --- | --- | --- | --- | --- | --- | --- | --- | --- | --- | --- |
| Oc1ccc(Cl)c(Cl)c1 [3,4-Dichlorophenol] | <0.1 |  |  |  |  |  |  |  |  |  |
| Clc1cc2oc3cc(Cl)c(Cl)c(Cl)c3c2c(Cl)c1Cl [1,2,3,7,8,9-HxCDF] |  | 34.7 | 26.2 | 68.1 | 43.3 | 48.1 | 10.4 | 42.7 | 0.1 |  |
| Clc1c(Cl)c(Cl)c2c(oc3c(Cl)c(Cl)c(Cl)c(Cl)c32)c1Cl [OCDF] |  | 27.0 | 1.1 | 7.2 | 18.1 | 4.9 | 1.3 | 8.0 | 0.0001 |  |
| c1ccc2c(c1)-c1cccc3c1c-2cc1ccccc13 [Benzo[b]fluoranthene] | <0.1 |  |  |  |  |  |  |  |  |  |
| c1ccc2c(c1)ccc1ccccc12 [Phenanthrene] | <0.1 |  |  |  |  |  |  |  |  |  |
| Clc1cc2c(oc3cc(Cl)c(Cl)c(Cl)c32)c(Cl)c1Cl [1,2,3,6,7,8-HxCDF] |  | 7.0 | 3.5 | 5.0 | 9.4 | 4.1 | 2.9 | 36.6 | 0.1 |  |
| Clc1cc2c(oc3c(Cl)c(Cl)c(Cl)cc32)c(Cl)c1Cl [2,3,4,6,7,8-HxCDF] |  | 44.8 | 31.1 | 82.8 | 28.1 | 47.9 | 13.2 | 43.8 | 0.1 |  |
| Clc1ccc(-c2ccc(Cl)c(Cl)c2)cc1Cl [3,3′,4,4′-TeCB] | <0.1 |  |  |  |  |  |  |  |  |  |
| Clc1cc2c(cc1Cl)Oc1c(cc(Cl)c(Cl)c1Cl)O2 [1,2,3,7,8-PeCDD] |  | 46.2 | 21.3 | 70.4 | 45.7 | 31.2 | 5.4 | 29.9 | 1 |  |
| c1ccc2c(c1)Cc1ccccc1-2 [Fluorene] | <0.1 |  |  |  |  |  |  |  |  |  |
| c1ccc2c(c1)-c1ccc3ccc4cccc5cc-2c1c3c45 [Indeno[1,2,3-cd]pyrene] | <0.1 |  |  |  |  |  |  |  |  |  |
| Clc1cc2c(c(Cl)c1Cl)Oc1c(cc(Cl)c(Cl)c1Cl)O2 [1,2,3,7,8,9-HxCDD] |  | 19.1 | 15.7 | 41.9 | 30.6 | 28.6 | 6.7 | 39.8 | 0.1 |  |
| Clc1cc2c(c(Cl)c1Cl)Oc1c(Cl)c(Cl)c(Cl)c(Cl)c1O2 [1,2,3,4,6,7,8-HpCDD] |  | 1.4 | 1.5 | −3.2 | −12.4 | 2.1 | 0.4 | 17.0 | 0.01 |  |
| Oc1ccc(Cl)cc1Cl [2,4-Dichlorophenol] | <0.1 |  |  |  |  |  |  |  |  |  |
| Clc1cccc(Cl)c1Cl [1,2,3-Trichlorobenzene] | <0.1 |  |  |  |  |  |  |  |  |  |
| Clc1cc2c(cc1Cl)Oc1cc(Cl)c(Cl)cc1O2 [2,3,7,8-TeCDD, 2,3,7,8-tetrachlorozibenzo-p-dioxin] |  | 7.4 | 0.4 | 7.7 | −3.0 | −3.4 | −0.2 | 1.1 | 1 |  |
| Clc1c(Cl)c(Cl)c2c(c1Cl)Oc1c(Cl)c(Cl)c(Cl)c(Cl)c1O2 [OCDD] |  | 1.6 | −2.5 | 9.4 | 0.1 | −3.7 | −0.4 | <0.1 | 0.0001 |  |

| SMILES | cross reaction [1, 6] [%] | Inhibition rate [2, 7] [%] | Inhibition rate [2, 8] [%] | Inhibition rate [3, 7] [%] | Inhibition rate [3, 9] [%] | Inhibition rate [4, 7] [%] | Inhibition rate [4, 10] [%] | cross reaction [1, 11] [%] | TEF value [5] | cross reaction [1] [%] |
| --- | --- | --- | --- | --- | --- | --- | --- | --- | --- | --- |
| c1cc2ccc3ccc4ccc5cccc6c(c1)c2c3c4c56 [Benzo[ghi]perylene] | <0.1 |  |  |  |  |  |  |  |  |  |
| Clc1ccc(-c2cc(Cl)c(Cl)c(Cl)c2)cc1Cl [3,3′,4,4′,5-PeCB] | <0.1 |  |  |  |  |  |  |  |  |  |
| c1ccc2cc3c(ccc4ccccc43)cc2c1 [Benz[a]anthracene] | <0.1 |  |  |  |  |  |  |  |  |  |
| Clc1cc2c(oc3c(Cl)c(Cl)c(Cl)c(Cl)c32)c(Cl)c1Cl [1,2,3,4,6,7,8-HpCDF] |  | 7.5 | −0.9 | 51.4 | 6.8 | 3.4 | −2.7 | 17.9 | 0.01 |  |
| Clc1cc2oc3c(Cl)c(Cl)c(Cl)cc3c2cc1Cl [2,3,4,7,8-PeCDF] |  | 40.1 | 26.5 | 55.0 | 40.2 | 46.2 | 13.0 | 16.1 |  |  |
| c1cc2ccc3cccc4ccc(c1)c2c34 [Pyrene] | <0.1 |  |  |  |  |  |  |  |  |  |
| Clc1cc2oc3cc(Cl)c(Cl)cc3c2cc1Cl [2,3,7,8-TeCDF] |  | 8.4 | 1.6 | 37.6 | 15.3 | 4.3 | −1.6 | 1.5 | 0.1 |  |
| Clc1cc2oc3cc(Cl)c(Cl)c(Cl)c3c2cc1Cl [1,2,3,7,8-PeCDF] | 100.0 | 27.1 | 11.8 | 68.6 | 17.5 | 23.2 | 0.5 | 100.0 | 0.05 |  |
| Oc1cc(Cl)c(Cl)cc1Cl [2,4,5-Trichlorophenol] | <0.1 |  |  |  |  |  |  |  |  |  |
| c1ccc2cc3ccccc3cc2c1 [Anthracene] | <0.1 |  |  |  |  |  |  |  |  |  |
| Clc1cc(-c2cc(Cl)c(Cl)c(Cl)c2)cc(Cl)c1Cl [3,3′,4,4′,5,5′-HxCB] | <0.1 |  |  |  |  |  |  |  |  |  |
| Clc1ccc(-c2ccccc2)cc1 [p-chlorobiphenyl] | <0.1 |  |  |  |  |  |  |  |  |  |
| c1ccc2cc3c(cc2c1)-c1cccc2cccc-3c12 [Benzo[k]fluoranthene] | <0.1 |  |  |  |  |  |  |  |  |  |
| c1ccc2ccccc2c1 [Naphthalene] | <0.1 |  |  |  |  |  |  |  |  |  |
| c1ccc2c(c1)ccc1c3ccccc3ccc21 [Chrysene] | <0.1 |  |  |  |  |  |  |  |  |  |
| c1ccc2c(c1)-c1cccc3cccc-2c13 [Fluoranthene] |  |  |  |  |  |  |  |  |  | <0.1 |
| Clc1cccc(Cl)c1 [m-Dichlorobenzene] | <0.1 |  |  |  |  |  |  |  |  |  |
